Data reported in the NIST ThermoML archive (doi:10.1021/je800110r).

Conditions: 283.15 K, Liquid, Vibrating tube method

CCCCCCCCCC [decane]
Conditions	mass density [kg/m3]
3625 kPa	740.1
3634 kPa	740.1
3651 kPa	740.3
3666 kPa	740.1
3675 kPa	740.1
3689 kPa	740
3701 kPa	740.1
3713 kPa	740.1
3724 kPa	740.1
3735 kPa	740.2
3748 kPa	740.2
3759 kPa	740
3774 kPa	740.2
3789 kPa	740.1
3800 kPa	740.1
3899 kPa	740.2
3917 kPa	740.3
3930 kPa	740.1
3945 kPa	740.3
3957 kPa	740.3
3968 kPa	740.3
3982 kPa	740.4
3992 kPa	740.4
4007 kPa	740.4
4017 kPa	740.3
4031 kPa	740.3
4042 kPa	740.3
4055 kPa	740.3
4085 kPa	740.4
4096 kPa	740.2
4114 kPa	740.5
4129 kPa	740.3
4147 kPa	740.4
4160 kPa	740.5
4179 kPa	740.5
4197 kPa	740.4
4212 kPa	740.5
4229 kPa	740.4
4247 kPa	740.5
4263 kPa	740.4
4277 kPa	740.5
4292 kPa	740.5
4306 kPa	740.6
4321 kPa	740.4
4333 kPa	740.6
4349 kPa	740.5
4362 kPa	740.6
4394 kPa	740.6
4410 kPa	740.5
4424 kPa	740.5
4437 kPa	740.5
4455 kPa	740.7
4468 kPa	740.6
4484 kPa	740.7
4499 kPa	740.7
4514 kPa	740.7
4533 kPa	740.6
4549 kPa	740.8
4565 kPa	740.7
4579 kPa	740.7
4603 kPa	740.8
4628 kPa	740.7
4648 kPa	740.8
4667 kPa	740.7
4770 kPa	740.8
4791 kPa	740.9
4811 kPa	740.9
4835 kPa	740.9
5291 kPa	741.2
5334 kPa	741.3
5356 kPa	741.3
5377 kPa	741.3
5399 kPa	741.3
5421 kPa	741.4
5444 kPa	741.4
5463 kPa	741.4
5486 kPa	741.3
5505 kPa	741.3
5529 kPa	741.5
5549 kPa	741.4
5573 kPa	741.5
5624 kPa	741.5
5644 kPa	741.5
5662 kPa	741.5
5674 kPa	741.4
5686 kPa	741.6
5700 kPa	741.6
5719 kPa	741.6
5736 kPa	741.5
5778 kPa	741.6
5790 kPa	741.5
5806 kPa	741.6
5819 kPa	741.7
5838 kPa	741.6
5851 kPa	741.6
5852 kPa	741.7
5870 kPa	741.7
5887 kPa	741.7
5909 kPa	741.6
5920 kPa	741.7
5926 kPa	741.7
5930 kPa	741.8
5942 kPa	741.8
5960 kPa	741.7
5977 kPa	741.8
5991 kPa	741.8
6008 kPa	741.7
6025 kPa	741.8
6043 kPa	741.7
6063 kPa	741.7
6081 kPa	741.8
6102 kPa	741.8
6122 kPa	741.9
6142 kPa	741.8
6161 kPa	741.9
6626 kPa	742.2
6649 kPa	742.2
6666 kPa	742.3
6683 kPa	742.2
6712 kPa	742.2
6729 kPa	742.3
6755 kPa	742.2
6775 kPa	742.3
6805 kPa	742.3
6826 kPa	742.4
6843 kPa	742.2
6861 kPa	742.4
6877 kPa	742.3
6905 kPa	742.4
6933 kPa	742.4
6948 kPa	742.3
6967 kPa	742.4
6996 kPa	742.4
7021 kPa	742.3
7041 kPa	742.4
7058 kPa	742.5
7077 kPa	742.5
